A value given as a limit tells only on which side of the number the result lay.

The target of one assay is T1, human IR (hIR) (Homo sapiens, UniProt P06213).
T1 construct: containing amino acid residues 979-1382 of human IR; made in house; host or cells: Sf9 cells (baculovirus), same process as hIGF1R
The experiment in a line: TR-FRET kinase assay of purified hIR. It counts as biochemical. Conditions: activated hIR 0.5 nM, 10 μM ATP, values given as pIC50 category. On the technique in general: TR-FRET usually uses a lanthanide donor and a delayed reading to cut background.

Assay [1] addresses T2, NIH-3T3 cells overexpressing human IGF-1R (Homo sapiens, UniProt P08069).
T2 construct: expressed in transfected cells; host or cells: NIH-3T3 (mouse fibroblasts)
Description: IGF-1R cellular autophosphorylation (DELFIA). It counts as cell-based. The gist of the method: (§1)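 Receptor autophosphorylation measured by DELFIA, capturing IGF-1R or IRβ and detecting with europium anti-pTyr, reported as percent of IGF-1- or insulin-stimulated signal. Compounds (30 uM to 1.5 nM) added 2 h before ligand, then 15 min stimulation (IGF-1 30 ng/ml or insulin 3 ug/ml).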

Another assay addresses ALK (Homo sapiens, UniProt Q9UM73). Description: ALK enzyme assay (HTRF). Format: biochemical. As to conditions: 0.25 nM ALK, 15.0 μM ATP, values given as pIC50 category. An outline of the steps: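 Isolated ALK phosphorylates a biotinylated tyrosine peptide, 120 min at 20° C; anti-phosphotyrosine Eu-cryptate/streptavidin-XL665 HTRF read after 60 min with EDTA-containing detection mix.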

Assay [2] addresses T3, NIH-3T3 cells overexpressing human IR (Homo sapiens, UniProt P06213).
T3 construct: expressed in transfected cells; host or cells: NIH-3T3 (mouse fibroblasts)
Description: IR cellular autophosphorylation (DELFIA). Format: cell-based. Conditions: 2 h compound, insulin 3 ug/ml for 15 minutes, IC50 category. The gist of the method: as §1

T3 sequence (P06213 28-1382): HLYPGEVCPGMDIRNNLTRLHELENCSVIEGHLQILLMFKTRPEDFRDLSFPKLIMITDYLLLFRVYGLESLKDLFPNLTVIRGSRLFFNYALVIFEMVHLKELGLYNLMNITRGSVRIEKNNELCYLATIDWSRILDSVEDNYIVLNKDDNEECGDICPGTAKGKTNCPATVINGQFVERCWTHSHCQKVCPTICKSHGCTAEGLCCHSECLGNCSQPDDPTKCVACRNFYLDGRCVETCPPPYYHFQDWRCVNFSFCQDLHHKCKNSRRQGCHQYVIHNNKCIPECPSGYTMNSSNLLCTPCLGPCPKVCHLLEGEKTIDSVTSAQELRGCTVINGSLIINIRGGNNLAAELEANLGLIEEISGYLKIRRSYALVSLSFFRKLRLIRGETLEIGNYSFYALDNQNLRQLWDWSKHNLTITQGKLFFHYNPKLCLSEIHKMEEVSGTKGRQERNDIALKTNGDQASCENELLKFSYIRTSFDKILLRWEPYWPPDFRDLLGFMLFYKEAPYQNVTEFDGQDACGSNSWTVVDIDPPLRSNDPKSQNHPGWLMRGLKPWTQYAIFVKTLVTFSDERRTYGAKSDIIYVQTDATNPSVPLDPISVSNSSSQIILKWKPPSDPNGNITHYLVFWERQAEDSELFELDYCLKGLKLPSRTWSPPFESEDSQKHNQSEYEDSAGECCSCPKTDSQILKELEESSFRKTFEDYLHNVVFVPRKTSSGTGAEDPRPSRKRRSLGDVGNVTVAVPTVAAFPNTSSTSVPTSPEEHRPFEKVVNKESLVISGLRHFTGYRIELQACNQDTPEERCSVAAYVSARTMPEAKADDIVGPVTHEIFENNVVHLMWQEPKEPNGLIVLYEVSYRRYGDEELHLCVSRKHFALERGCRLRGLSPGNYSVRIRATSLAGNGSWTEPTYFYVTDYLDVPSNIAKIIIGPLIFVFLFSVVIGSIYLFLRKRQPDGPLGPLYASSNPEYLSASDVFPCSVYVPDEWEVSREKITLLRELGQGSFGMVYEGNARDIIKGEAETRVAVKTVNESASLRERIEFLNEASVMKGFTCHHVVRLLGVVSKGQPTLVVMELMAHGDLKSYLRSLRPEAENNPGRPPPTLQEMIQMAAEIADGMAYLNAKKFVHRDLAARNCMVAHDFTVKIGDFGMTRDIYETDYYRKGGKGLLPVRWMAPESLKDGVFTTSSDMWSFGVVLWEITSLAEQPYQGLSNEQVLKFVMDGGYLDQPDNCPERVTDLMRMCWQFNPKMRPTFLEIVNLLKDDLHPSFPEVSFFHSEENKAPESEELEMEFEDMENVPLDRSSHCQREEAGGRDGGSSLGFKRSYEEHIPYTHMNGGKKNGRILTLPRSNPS
Sequence of ALK (Q9UM73 19-1620): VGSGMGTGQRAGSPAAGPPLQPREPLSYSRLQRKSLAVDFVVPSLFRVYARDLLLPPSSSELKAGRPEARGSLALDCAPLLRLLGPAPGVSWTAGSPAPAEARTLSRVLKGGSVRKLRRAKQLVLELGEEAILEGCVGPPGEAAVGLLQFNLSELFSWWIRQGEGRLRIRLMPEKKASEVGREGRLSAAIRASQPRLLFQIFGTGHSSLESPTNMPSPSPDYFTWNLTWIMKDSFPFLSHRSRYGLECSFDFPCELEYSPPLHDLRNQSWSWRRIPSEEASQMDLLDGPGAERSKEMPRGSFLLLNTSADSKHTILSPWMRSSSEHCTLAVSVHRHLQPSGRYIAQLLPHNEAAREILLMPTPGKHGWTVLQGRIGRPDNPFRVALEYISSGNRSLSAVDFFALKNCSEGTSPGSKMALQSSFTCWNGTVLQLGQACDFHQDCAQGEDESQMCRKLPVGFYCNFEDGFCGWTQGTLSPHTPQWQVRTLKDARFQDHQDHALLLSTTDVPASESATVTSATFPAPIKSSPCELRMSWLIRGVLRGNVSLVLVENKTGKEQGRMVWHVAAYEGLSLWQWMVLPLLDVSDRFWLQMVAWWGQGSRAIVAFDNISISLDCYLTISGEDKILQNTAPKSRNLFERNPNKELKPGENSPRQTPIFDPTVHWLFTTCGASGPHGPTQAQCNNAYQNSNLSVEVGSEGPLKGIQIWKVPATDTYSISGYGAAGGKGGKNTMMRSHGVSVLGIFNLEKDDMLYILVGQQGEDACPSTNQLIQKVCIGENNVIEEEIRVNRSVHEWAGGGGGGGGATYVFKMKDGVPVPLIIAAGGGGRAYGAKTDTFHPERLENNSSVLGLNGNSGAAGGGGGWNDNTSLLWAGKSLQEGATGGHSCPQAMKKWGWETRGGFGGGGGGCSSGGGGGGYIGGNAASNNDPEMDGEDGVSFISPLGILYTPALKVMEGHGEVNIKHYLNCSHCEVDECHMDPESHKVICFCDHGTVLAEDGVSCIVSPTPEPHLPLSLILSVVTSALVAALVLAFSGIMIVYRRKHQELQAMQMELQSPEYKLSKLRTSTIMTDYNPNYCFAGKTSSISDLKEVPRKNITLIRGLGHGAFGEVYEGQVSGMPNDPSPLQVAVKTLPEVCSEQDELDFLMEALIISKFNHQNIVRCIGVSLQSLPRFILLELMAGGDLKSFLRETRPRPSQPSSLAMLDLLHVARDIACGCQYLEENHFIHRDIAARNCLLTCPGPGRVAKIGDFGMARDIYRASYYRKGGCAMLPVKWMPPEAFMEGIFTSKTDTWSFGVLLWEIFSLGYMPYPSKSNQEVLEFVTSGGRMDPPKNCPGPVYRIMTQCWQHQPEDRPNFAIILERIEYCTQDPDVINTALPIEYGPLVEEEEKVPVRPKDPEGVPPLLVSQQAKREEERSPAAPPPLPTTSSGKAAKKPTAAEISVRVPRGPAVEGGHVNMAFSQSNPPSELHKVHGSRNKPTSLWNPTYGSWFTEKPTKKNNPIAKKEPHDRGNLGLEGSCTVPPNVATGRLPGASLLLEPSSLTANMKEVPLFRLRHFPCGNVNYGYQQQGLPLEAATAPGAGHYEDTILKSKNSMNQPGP
T2 sequence (P08069 31-1367): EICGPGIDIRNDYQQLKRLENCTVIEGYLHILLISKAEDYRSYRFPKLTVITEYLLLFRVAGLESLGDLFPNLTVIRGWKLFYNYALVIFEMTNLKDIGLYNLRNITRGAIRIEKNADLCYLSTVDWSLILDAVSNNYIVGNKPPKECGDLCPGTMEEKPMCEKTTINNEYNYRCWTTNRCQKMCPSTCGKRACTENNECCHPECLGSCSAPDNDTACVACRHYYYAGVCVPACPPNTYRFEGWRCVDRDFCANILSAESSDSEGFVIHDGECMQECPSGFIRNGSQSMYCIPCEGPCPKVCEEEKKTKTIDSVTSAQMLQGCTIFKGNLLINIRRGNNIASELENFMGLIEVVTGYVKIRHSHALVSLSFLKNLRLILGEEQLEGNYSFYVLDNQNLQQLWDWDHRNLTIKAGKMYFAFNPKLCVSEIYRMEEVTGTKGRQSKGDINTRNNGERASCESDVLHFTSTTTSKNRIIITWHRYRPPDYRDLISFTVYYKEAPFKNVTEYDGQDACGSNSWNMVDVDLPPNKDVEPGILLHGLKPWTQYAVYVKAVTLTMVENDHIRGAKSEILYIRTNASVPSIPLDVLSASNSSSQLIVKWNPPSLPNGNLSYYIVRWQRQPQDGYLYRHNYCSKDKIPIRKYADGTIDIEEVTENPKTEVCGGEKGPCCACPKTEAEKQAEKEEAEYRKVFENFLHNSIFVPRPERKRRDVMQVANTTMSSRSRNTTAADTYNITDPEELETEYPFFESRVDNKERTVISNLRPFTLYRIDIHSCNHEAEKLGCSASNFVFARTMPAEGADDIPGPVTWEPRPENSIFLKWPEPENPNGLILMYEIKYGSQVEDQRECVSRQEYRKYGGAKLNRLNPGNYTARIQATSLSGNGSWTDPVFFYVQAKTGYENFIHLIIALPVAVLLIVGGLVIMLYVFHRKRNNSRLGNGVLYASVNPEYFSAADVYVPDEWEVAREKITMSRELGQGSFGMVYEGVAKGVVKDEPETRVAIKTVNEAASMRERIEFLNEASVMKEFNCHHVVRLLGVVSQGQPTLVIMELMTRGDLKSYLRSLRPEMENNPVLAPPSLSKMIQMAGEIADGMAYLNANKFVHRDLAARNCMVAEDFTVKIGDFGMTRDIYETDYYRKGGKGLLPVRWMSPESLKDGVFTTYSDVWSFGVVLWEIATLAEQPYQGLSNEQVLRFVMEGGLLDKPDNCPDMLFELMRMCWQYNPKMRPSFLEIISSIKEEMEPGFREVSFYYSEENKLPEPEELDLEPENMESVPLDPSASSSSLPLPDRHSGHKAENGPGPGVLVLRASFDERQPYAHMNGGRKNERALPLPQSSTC
T1 sequence (P06213 979-1382): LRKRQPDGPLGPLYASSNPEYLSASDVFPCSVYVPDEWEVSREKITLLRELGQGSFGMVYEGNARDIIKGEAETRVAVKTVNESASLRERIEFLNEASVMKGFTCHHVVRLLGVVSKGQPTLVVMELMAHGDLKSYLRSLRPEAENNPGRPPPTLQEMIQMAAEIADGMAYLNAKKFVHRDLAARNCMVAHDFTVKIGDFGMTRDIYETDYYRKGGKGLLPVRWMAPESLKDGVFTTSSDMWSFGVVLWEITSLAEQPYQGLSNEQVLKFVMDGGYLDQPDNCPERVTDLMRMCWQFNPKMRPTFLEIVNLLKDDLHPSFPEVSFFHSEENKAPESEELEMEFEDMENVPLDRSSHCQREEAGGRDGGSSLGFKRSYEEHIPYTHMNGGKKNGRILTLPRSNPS

Regarding `COc1ccc(N2CCN(C)CC2)cc1Nc1nc(Nc2ccccc2C(N)=O)c2cc[nH]c2n1` [Example 9, 2-[(2-{[2-(methyloxy)-5-(4-methyl-1-piperazinyl)phenyl]amino}-1H-pyrrolo[2,3-d]pyrimidin-4-yl)amino]benzamide], the half-maximal inhibitory concentration (IC50) (in general, the point on the concentration scale where inhibition reaches its midpoint) was 1.26 to 3.98 nM on human IR (hIR), 100 to 500 nM in assay [1] and 1.26 to 3.98 nM against ALK.
As to `COc1ccc(N2CCN(C(C)C)CC2)cc1Nc1nc(Nc2ccccc2C(N)=O)c2cc[nH]c2n1` [Example 10, 2-[(2-{[5-[4-(1-methylethyl)-1-piperazinyl]-2-(methyloxy)phenyl]amino}-1H-pyrrolo[2,3-d]pyrimidin-4-yl)amino]benzamide], the IC50 on human IR (hIR) is 1.26 to 3.98 nM; in assay [1], 100 to 500 nM; against ALK, 1.26 to 3.98 nM; in assay [2], 100 to 500 nM.
As for `CN(C)CC(=O)Nc1ccc(Cl)c(Nc2nc(Nc3ccccc3C(N)=O)c3cc[nH]c3n2)c1` [Example 18, 2-{[2-({2-chloro-5-[(N,N-dimethylglycyl)amino]phenyl}amino)-1H-pyrrolo[2,3-d]pyrimidin-4-yl]amino}benzamide], the IC50 on human IR (hIR) is 0.251 to 1 nM; in assay [1], under 100 nM; against ALK, 1.26 to 3.98 nM.
`COc1cc(N2CCC(N3CC[C@H](F)C3)CC2)ccc1Nc1nc(Nc2cccc(F)c2C(N)=O)c2cc[nH]c2n1` [Example 43, 2-fluoro-6-[(2-{[4-{4-[(3S)-3-fluoro-1-pyrrolidinyl]-1-piperidinyl}-2-(methyloxy)phenyl]amino}-1H-pyrrolo[2,3-d]pyrimidin-4-yl)amino]benzamide]: the half-maximal inhibitory concentration (IC50) against human IR (hIR) is 1.26 to 3.98 nM; in assay [1], 100 to 500 nM; at ALK, 1.26 to 3.98 nM; in assay [2], 100 to 500 nM.
`COc1cc(N2CCC(N3CC[C@@H](F)C3)CC2)ccc1Nc1nc(Nc2cccc(F)c2C(N)=O)c2cc[nH]c2n1` [Example 44, 2-fluoro-6-[(2-{[4-{4-[(3R)-3-fluoro-1-pyrrolidinyl]-1-piperidinyl}-2-(methyloxy)phenyl]amino}-1H-pyrrolo[2,3-d]pyrimidin-4-yl)amino]benzamide]: the IC50 at human IR (hIR) was 1.26 to 3.98 nM; in assay [1] it was over 500 nM; at ALK it was 1.26 to 3.98 nM; in assay [2], over 500 nM.
In the case of `COc1cc(N2CCN(C(C)C)CC2)ccc1Nc1nc(Nc2cccc(F)c2C(N)=O)c2cc[nH]c2n1` [Example 46, 2-fluoro-6-[(2-{[4-[4-(1-methylethyl)-1-piperazinyl]-2-(methyloxy)phenyl]amino}-1H-pyrrolo[2,3-d]pyrimidin-4-yl)amino]benzamide], the IC50 in assay [1] was 100 to 500 nM; against ALK it was 0.251 to 1 nM; in assay [2] it was 100 to 500 nM.
In the case of `COc1cc(N2CCN(C(C)C)CC2)c(F)cc1Nc1nc(Nc2cccc(F)c2C(N)=O)c2cc[nH]c2n1` [Example 48, 2-fluoro-6-[(2-{[5-fluoro-4-[4-(1-methylethyl)-1-piperazinyl]-2-(methyloxy)phenyl]amino}-1H-pyrrolo[2,3-d]pyrimidin-4-yl)amino]benzamide], the results for the IC50 (in assay [1]; at ALK; in assay [2]) were 100 to 500 nM, 0.251 to 1 nM and under 100 nM, respectively.
`COc1cc(N2CCOC[C@@H]2C)ccc1Nc1nc(Nc2cccc(F)c2C(N)=O)c2cc[nH]c2n1` [Example 49, 2-fluoro-6-[(2-{[4-[(3S)-3-methyl-4-morpholinyl]-2-(methyloxy)phenyl]amino}-1H-pyrrolo[2,3-d]pyrimidin-4-yl)amino]benzamide]: the IC50 against human IR (hIR) was 1.26 to 3.98 nM; in assay [1] it was 100 to 500 nM; against ALK, 1.26 to 3.98 nM; in assay [2] it was 100 to 500 nM.
As for `COc1c(Nc2nc(Nc3cccc(F)c3C(N)=O)c3cc[nH]c3n2)ccc(N2CCN(C(C)C)CC2)c1F` [Example 51, 2-fluoro-6-[(2-{[3-fluoro-4-[4-(1-methylethyl)-1-piperazinyl]-2-(methyloxy)phenyl]amino}-1H-pyrrolo[2,3-d]pyrimidin-4-yl)amino]benzamide], the IC50 in assay [1] is over 500 nM; against ALK, 1.26 to 3.98 nM; in assay [2], over 500 nM.
Consider `COc1cc(N2CCN(CCS(C)(=O)=O)CC2)c(C)cc1Nc1nc(Nc2cccc(F)c2C(N)=O)c2cc[nH]c2n1` [Example 52, 2-fluoro-6-({2-[(5-methyl-2-(methyloxy)-4-{4-[2-(methylsulfonyl)ethyl]-1-piperazinyl}phenyl)amino]-1H-pyrrolo[2,3-d]pyrimidin-4-yl}amino)benzamide], for which the IC50 in assay [1] is under 100 nM; against ALK, 1.26 to 3.98 nM; in assay [2], over 500 nM.
On to `COc1cc(N2CCC(N3CCOCC3)CC2)ccc1Nc1nc(Nc2ccc(F)cc2C(N)=O)c2cc[nH]c2n1` [Example 59, 5-fluoro-2-{[2-({2-(methyloxy)-4-[4-(4-morpholinyl)-1-piperidinyl]phenyl}amino)-1H-pyrrolo[2,3-d]pyrimidin-4-yl]amino}benzamide], for which the values for the IC50 (on human IR (hIR); in assay [1]; at ALK) were 0.251 to 1 nM, under 100 nM and 0.251 to 1 nM, respectively.
Consider `COc1cc(N2CCOC[C@@H]2C)ccc1Nc1nc(Nc2ccc(F)cc2C(N)=O)c2cc[nH]c2n1` [Example 61, 5-fluoro-2-[(2-{[4-[(3S)-3-methyl-4-morpholinyl]-2-(methyloxy)phenyl]amino}-1H-pyrrolo[2,3-d]pyrimidin-4-yl)amino]benzamide], for which the IC50 on human IR (hIR) was 0.251 to 1 nM; in assay [1] it was under 100 nM; against ALK it was 1.26 to 3.98 nM; in assay [2] it was under 100 nM.
In the case of `COc1cc(N2CCN(C(C)C)CC2)ccc1Nc1nc(Nc2ccc(Br)cc2C(N)=O)c2cc[nH]c2n1` [Example 68, 5-bromo-2-[(2-{[4-[4-(1-methylethyl)-1-piperazinyl]-2-(methyloxy)phenyl]amino}-1H-pyrrolo[2,3-d]pyrimidin-4-yl)amino]benzamide], the figures for the IC50 (against human IR (hIR); in assay [1]; against ALK) were 0.251 to 1 nM, 100 to 500 nM and 0.251 to 1 nM, respectively.
Regarding `CCCN1CCC=C(c2ccc(Nc3nc(Nc4cc(F)ccc4C(N)=O)c4cc[nH]c4n3)c(OC)c2)C1` [Example 70, 4-fluoro-2-[(2-{[2-(methyloxy)-4-(1-propyl-1,2,5,6-tetrahydro-3-pyridinyl)phenyl]amino}-1H-pyrrolo[2,3-d]pyrimidin-4-yl)amino]benzamide], the IC50 on human IR (hIR) was 0.251 to 1 nM; in assay [1], under 100 nM; against ALK it was 0.251 to 1 nM; in assay [2], under 100 nM.
Consider `CCCN1CCCC(c2ccc(Nc3nc(Nc4cc(F)ccc4C(N)=O)c4cc[nH]c4n3)c(OC)c2)C1` (stereo not drawn) [Example 71, 4-fluoro-2-[(2-{[2-(methyloxy)-4-(1-propyl-3-piperidinyl)phenyl]amino}-1H-pyrrolo[2,3-d]pyrimidin-4-yl)amino]benzamide], for which the IC50 is 0.251 to 1 nM against human IR (hIR), under 100 nM in assay [1], 0.251 to 1 nM on ALK and 100 to 500 nM in assay [2].
For `COc1cc(C2=CCN(C(C)C)CC2)ccc1Nc1nc(Nc2cc(F)ccc2C(N)=O)c2cc[nH]c2n1` [Example 72, 4-fluoro-2-[(2-{[4-[1-(1-methylethyl)-1,2,3,6-tetrahydro-4-pyridinyl]-2-(methyloxy)phenyl]amino}-1H-pyrrolo[2,3-d]pyrimidin-4-yl)amino]benzamide], the IC50 on human IR (hIR) was 0.251 to 1 nM; in assay [1] it was under 100 nM; at ALK, 0.251 to 1 nM; in assay [2], 100 to 500 nM.
Take `CCCN1CCC(c2ccc(Nc3nc(Nc4cc(F)ccc4C(N)=O)c4cc[nH]c4n3)c(OC)c2)CC1` [Example 73, 4-fluoro-2-[(2-{[2-(methyloxy)-4-(1-propyl-4-piperidinyl)phenyl]amino}-1H-pyrrolo[2,3-d]pyrimidin-4-yl)amino]benzamide]: the IC50 on human IR (hIR) was 0.251 to 1 nM; in assay [1], under 100 nM; on ALK, 0.251 to 1 nM; in assay [2], under 100 nM.
As for `COc1cc(N2CCC(O)CC2)ccc1Nc1nc(Nc2cc(F)c(F)cc2C(N)=O)c2cc[nH]c2n1` [Example 99], the IC50 on human IR (hIR) is 0.251 to 1 nM; in assay [1] it was under 100 nM; at ALK it was 0.251 to 1 nM.
As for `COc1cc(N2CCC(N3CCCCC3)CC2)ccc1Nc1nc(Nc2cc(F)c(F)cc2C(N)=O)c2cc[nH]c2n1` [Example 100, 2-[(2-{[4-(1,4′-bipiperidin-1′-yl)-2-(methyloxy)phenyl]amino}-1H-pyrrolo[2,3-d]pyrimidin-4-yl)amino]-4,5-difluorobenzamide], the IC50 on human IR (hIR) was 0.251 to 1 nM; in assay [1] it was under 100 nM; against ALK, 0.251 to 1 nM.
On to `COc1cc(N2CCOCC2)ccc1Nc1nc(Nc2cc(F)c(F)cc2C(N)=O)c2cc[nH]c2n1` [Example 104, 4,5-difluoro-2-[(2-{[2-(methyloxy)-4-(4-morpholinyl)phenyl]amino}-1H-pyrrolo[2,3-d]pyrimidin-4-yl)amino]benzamide], for which the figures for the half-inhibitory concentration (IC50) (against human IR (hIR); in assay [1]; against ALK) were 0.251 to 1 nM, under 100 nM and 1.26 to 3.98 nM, respectively.
The like results for `COc1cc(N2CCC(C3CCN(CCS(C)(=O)=O)CC3)CC2)ccc1Nc1nc(Nc2cccc(F)c2C(N)=O)c2cc[nH]c2n1` [Example 112, 2-fluoro-6-({2-[(2-(methyloxy)-4-{1′-[2-(methylsulfonyl)ethyl]-4,4′-bipiperidin-1-yl}phenyl)amino]-1H-pyrrolo[2,3-d]pyrimidin-4-yl}amino)benzamide] were, in that order, 1.26 to 3.98 nM, 100 to 500 nM and 0.251 to 1 nM.

The values are drawn from patent US7981903B2, “2-[2-{phenylamino}-1H-pyrrolo[2,3-D]pyrimidin-4-yl)amino] benzamide derivatives as IGF-1R inhibitors for the treatment of cancer” (GlaxoSmithKline LLC, priority 2007, dated 2011).
